From the supplement of paper PMC13380429

Key:
Conditions in all cases: 72 h
[1] = test system: Calu-3; assay: relative viability EC50 (midpoint between 100% and the lowest measured viability); higher = less toxic
[2] = test system: Vero E6; assay: as above
[3] = test system: HepG2; assay: as above
[4] = test system: U2OS; assay: as above
[5] = test system: Caco-2; assay: as above
[6] = test system: Calu-3; assay: drug sensitivity score (DSS) for viability; higher = more toxic; extreme values may be limits of the assay
[7] = test system: Vero E6; assay: as above
[8] = test system: HepG2; assay: as above
[9] = test system: U2OS; assay: as above
[10] = test system: Caco-2; assay: as above
[11] = test system: Calu-3; assay: cell viability relative to DMSO; higher = less toxic
[12] = test system: Vero E6; assay: as above
[13] = test system: HepG2; assay: as above
[14] = test system: U2OS; assay: as above
[15] = test system: Caco-2; assay: as above

Structure (SMILES)	relative viability EC50 [1] [nM]	relative viability EC50 [2] [nM]	relative viability EC50 [3] [nM]	relative viability EC50 [4] [nM]	relative viability EC50 [5] [nM]	drug sensitivity score [6]	drug sensitivity score [7]	drug sensitivity score [8]	drug sensitivity score [9]	drug sensitivity score [10]	cell viability ([11]; 1 nM) [%]	cell viability ([11]; 10 nM) [%]	cell viability ([11]; 100 nM) [%]	cell viability ([11]; 1000 nM) [%]	cell viability ([11]; 10000 nM) [%]	cell viability ([12]; 1 nM) [%]	cell viability ([12]; 10 nM) [%]	cell viability ([12]; 100 nM) [%]	cell viability ([12]; 1000 nM) [%]	cell viability ([12]; 10000 nM) [%]	cell viability ([13]; 1 nM) [%]	cell viability ([13]; 10 nM) [%]	cell viability ([13]; 100 nM) [%]	cell viability ([13]; 1000 nM) [%]	cell viability ([13]; 10000 nM) [%]	cell viability ([14]; 1 nM) [%]	cell viability ([14]; 10 nM) [%]	cell viability ([14]; 100 nM) [%]	cell viability ([14]; 1000 nM) [%]	cell viability ([14]; 10000 nM) [%]	cell viability ([15]; 1 nM) [%]	cell viability ([15]; 10 nM) [%]	cell viability ([15]; 100 nM) [%]	cell viability ([15]; 1000 nM) [%]	cell viability ([15]; 10000 nM) [%]
COc1nccc(-c2c(-c3ccc(F)cc3)ncn2C2CCNCC2)n1	> 10000	> 10000	> 10000	> 10000	> 10000	0	1.4	0.4	0	0	87.3	93.7	90.7	95.7	83.3	100	97	94.4	83.6	89	93.9	99.8	104	88.4	94.6	96.3	99.5	97.1	96.9	90	95.8	95.7	87.6	95.2	87.8
CC(C)(O)CS(=O)(=O)Nc1ccc2c(c1)CCN(C(=O)COc1cccnc1)C2 [Nampt-IN-1]	82.8	348	82.3	39.2	193	22.9	17.1	21.2	29.3	20	93.2	88.1	50.8	6.2	5.7	105	103	104	3.3	2.4	98.2	100	50.2	20.1	16.2	108	104	6.2	-0.1	0.1	100	99.8	84.5	4	3.7
O=C(Nc1cc(C(F)(F)F)cc(C(F)(F)F)c1)c1cnc(Cl)nc1C(F)(F)F	> 10000	> 10000	> 10000	> 10000	> 10000	0	0	0	0	0	98.3	109	101	104	99.2	96	97.5	97.1	97.2	102	90.4	96.7	99.8	97	92.6	100	100	102	99.9	94.9	102	94.3	102	103	97.7
COc1ccc(CCN(C)CCc2ccc(OC)c(OC)c2)cc1OC [YS-035]	> 10000	> 10000	> 10000	> 10000	> 10000	0	0	0	0	0	98.2	106	93.9	95.5	102	100	99.9	98.3	97.8	101	101	103	105	96.3	110	99.3	106	96.7	99.9	96.6	95.6	100	90.6	90.4	97.4
CC[C@]1(O)C[C@@H]2CN(CCc3c([nH]c4ccccc34)[C@@](C(=O)OC)(c3cc4c(cc3OC)N(C)[C@H]3[C@@](O)(C(N)=O)[C@H](O)[C@]5(CC)C=CCN6CC[C@]43[C@@H]65)C2)C1 [vindesine]	12.2	219	8.5	18	12.1	17.8	14.3	23.5	25.7	20.6	93.8	70.6	61.4	47	45.9	96.4	95.3	83.3	33.6	27.3	92.9	64.8	43.2	35.8	37.2	98.7	73.5	31.6	26.4	22.3	93.8	72.7	48.5	41.2	40.3
Cc1ccc(NC2=CC(=O)c3sc(C)nc3C2=O)cc1 [ryuvidine]	3290	2840	3020	3120	1640	5.2	5.2	5.3	5.7	9	115	95.8	109	102	2.7	100	97.7	97.4	96.4	16.2	95.4	106	97.9	98.1	8.5	102	97.3	104	99.3	0	94.2	91.8	92.7	77.9	0.9
